Reference: patent US20230203081A1, “LINCOSAMIDE ANTIBIOTICS AND USES THEREOF” (President and Fellows of Harvard College, priority 2020, published 2023)
≈ marks a conversion by molar mass, not a printed value.

Key:
[1] = Plasma protein binding, species h; assay type: in vitro ADME; conditions: human
S. aureus (MRSA) = test: Murine neutropenic thigh infection model; conditions: neutropenic mouse thigh, 24 h after a single intraperitoneal dose of 60 mg/kg
Experimental: (§4) Animal studies: Animal experiments were performed at the Biology Research Infrastructure Laboratory of Harvard University following IACUC-approved protocols. Animals were maintained in accordance with National Research Council guidelines. Pathogen-free, 5-6-week-old, female CD-1 mice weighing 22-26 grams were obtained from Charles River Laboratories, Inc. (Kingston, N.Y.). Animals were acclimated for a minimum of three days prior to start of the studies. Mice were caged as a group of four per cage, were housed at 21-23° C. with humidity ranging from 30-70%, were exposed to 12-hour light and dark cycles, and were supplied with food and water ad libitum.
(§5) Mouse thigh infection studies: Mice were rendered neutropenic by administering cyclophosphamide intraperitoneally, 150 mg/kg four days prior, and 100 mg/kg one day prior to infection. Bacterial strains were cultured overnight on blood agar plates at 35° C. in 5% CO2. […] Homogenates were serially diluted and plated on blood agar plates (each sample was plated in duplicate), and bacterial counts (log10 CFU/thigh) were determined after incubating the plates overnight at 35° C. in 5% CO2. Each experiment was repeated twice, and mean values were calculated (n=4 mice per time point).

ribosome = test: Toeprinting analysis (primer extension inhibition) in cell-free translation, ermBL and ermDL templates; assay type: biochemical; conditions: 50 μM
Experimental: Toeprinting analysis: The ermBL DNA template for toeprinting was generated by a 4-primer cross-over PCR using primers T7, NV1, ermB3-F and ermB3-R. The ermDL template was generated in the same way using primers RLR-fwd, RLR-rev, T7-SD-fwd and T7-SD-rev. In vitro translation in the PURExpress system (New England Biolabs) and toeprinting analysis were carried out as described previously. […]
Primer sequences used for toeprinting are as follows: T7 (TAATACGACTCACTATAGGG); NV1 (GGTTATAATGAATTTTGCTTATTAAC); ermB3-F (TAATACGACTCACTATAGGGCTTAAGTATAAGGAGGAAAAAATATGTTGGTATTCCAAATGCGTAATGTAGATAAAACATCTAC); ermB3-R (GGTTATAATGAATTTTGCTTATTAACGATAGAATTCTATCACTTATTTCAAAATAGTAGATGTTTTATCTACATTACG); RLR-fwd (GGAGGAAAAAATATGACACACTCAATGAGACTTCGTATTTTCCC); RLR-rev (CTATCACTTACAAAGTTGGGAAAATACGAAGTCTCATTGAG); T7-SD-fwd (TAATACGACTCACTATAGGGCTTAAGTATAAGGAGGAAAAAATATGACACACTCAATG); T7-SD-rev (GGTTATAATGAATTTTGCTTATTAACGATAGAATTCTATCACTTACAAAGTTGGGAAAAT).

[2] = test system: methicillin-resistant Staphylococcus aureus (MRSA); test: MIC, panel of clinically derived MRSA strains; assay type: cell-based; conditions: result in words
Experimental: (§1) Minimum inhibitory concentrations (MICs) were determined by broth microdilution method or agar dilution method following the Clinical and Laboratory Standards Institute guidelines. Standard bacterial strains were obtained from American Type Culture Collection (ATCC). Other bacterial strains were obtained from hospitals and commercial sources, so noted in Table 11. Before the start of the MIC experiment, standard and test compound stock solutions were prepared in dimethyl sulfoxide (DMSO, Aldrich D2650) at a stock concentration of 5,120 μg/mL. The compound concentration range typically employed for each experiment was 128-0.06 μg/mL (2.5% final DMSO concentration). Clindamycin was used as a comparator in all experiments and each experiment was performed in triplicate. Specialized procedures were employed for streptococcal and anaerobic strains. All other bacterial strains were sub-cultured on blood agar plates (tryptic soy agar with 5% sheep blood, Hardy Diagnostics) and incubated overnight at 35° C. Organisms were suspended in cation-adjusted Mueller-Hinton broth (CaMHB, BD 212322) and optical density was adjusted to 0.5 McFarland standard. Suspensions were further diluted to obtain a final inoculum of 5×10^5 CFU/mL for broth microdilution experiments.

[3] = test system: mammalian cells (A549, K562, HCT116, HepG2); test: Mammalian cell growth inhibition (CellTiter-Blue cell viability assay); assay type: cell-based, human; conditions: cell-culture safety profiling; result in words
Experimental: (§2) Mammalian cell experiments: All compounds were dissolved in sterile DMSO to a stock concentration of 20 μM and aliquoted prior to freezing at −20° C. Aliquots were limited to a maximum of 3 freeze-thaw cycles. A549 (human pulmonary carcinoma; […]) cells were cultured in Dulbecco's Modified Eagle Medium (DMEM) supplemented with 10% fetal bovine serum. K562 (human chronic myelogenous leukemia; […]) cells were cultured in Iscove's Modification of DMEM (IMDM) media supplemented with 10% fetal bovine serum. HCT116 (human colorectal carcinoma; […]) cells were cultured in McCoy's 5a (Iwakata & Grace Modification) media supplemented with 10% fetal bovine serum. HepG2 (human hepatocellular carcinoma; […]) cells were cultured in Eagle's Minimum Essential Medium (EMEM) supplemented with 10% fetal bovine serum. All cell cultures were maintained in a 5% CO2 incubator at 37° C.
(§3) Growth inhibition was studied using the Promega CellTiter-Blue cell viability assay pursuant to the manufacturer's protocol. Briefly, cells were harvested, diluted, and mixed with the desired concentration of test compound. […] Plates were read on a SpectraMax i3 plate reader. GI50 values were determined by nonlinear regression using GraphPad Prism and represent the mean of at least three independent experiments.

[4] = as above; assay type: cell-based, human; conditions: human, A549, K562, HCT116 and HepG2 cells; mammalian cells, 72 h
Experimental: as §2, §3

S. pyogenes ATCC 19615 = test: Murine neutropenic thigh infection model; conditions: neutropenic mouse thigh, S. pyogenes ATCC 19615, 24 h after a single intraperitoneal dose of 60 mg/kg
Experimental: as §4, §5

[5] = test system: Enterococcus faecium and Enterococcus faecalis strains resistant to vancomycin, linezolid, azithromycin, ciprofloxacin, levofloxacin, gentamicin, and …; assay type: cell-based; conditions: panel of E. faecium and E. faecalis strains resistant to vancomycin, doxycycline
Experimental: as §1

E. coli MP-9 ΔTolC = test: MIC (broth microdilution or agar dilution, CLSI); assay type: cell-based; conditions: Escherichia coli
In short: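 Inoculum for broth microdilution was 5×10^5 CFU/mL final, prepared from overnight 35° C blood-agar subcultures (separate handling for streptococcal and anaerobic strains); MICs read by CLSI broth microdilution or agar dilution.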

A. baumanii ATCC 19606 = test: Murine neutropenic thigh infection model; assay type: in vivo, mice; conditions: neutropenic mouse thigh, A. baumanii ATCC 19606 (FIG. 4C)
[6] = test system: S. aureus MMX USA 300; MRSA; test: MIC (broth microdilution or agar dilution, CLSI); assay type: cell-based; conditions: Staphylococcus aureus
In short: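 CLSI MIC, broth microdilution or agar dilution; compound 128-0.06 μg/mL, 2.5% DMSO final; triplicate. Anaerobes (e.g. clostridia) and streptococci run by specialized procedures. Other strains: overnight 35° C on blood agar, CaMHB, 0.5 McFarland, inoculum 5×10^5 CFU/mL.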

E. faecalis VRE = test: MIC (CLSI), first E. faecalis VRE line of Table 4; assay type: cell-based; conditions: Enterococcus faecalis, VRE
Experimental: as §1

| SMILES | fraction unbound [1] | reduction in bacterial burden vs clindamycin- and vehicle-treated controls (S. aureus (MRSA)) | translation arrest at the start codons of model ORFs (toeprinting) (ribosome) | activity against a panel of clinically derived MRSA strains [2] | toxicity toward mammalian cells [3] | GI50 at 72 h [4] [µM] | reduction in bacterial burden vs clindamycin- and vehicle-treated controls (S. pyogenes ATCC 19615) | MICs [5] [µg/mL] | MIC (E. coli MP-9 ΔTolC) [µg/mL] | efficacy in thigh infection model (A. baumanii ATCC 19606) | MIC [6] [µg/mL] | MIC (E. faecalis VRE) [µg/mL] |
| --- | --- | --- | --- | --- | --- | --- | --- | --- | --- | --- | --- | --- |
| CSC1O[C@H]([C@H](NC(=O)[C@H]2NC[C@@H]3C[C@H](CC(C)C)CCO[C@H]32)[C@H](C)Cl)C(O)[C@@H](O)[C@H]1O (stereo partly drawn) [FSA-513018b] | 0.08 | statistically significant reductions | firmly locked the ribosome at the start codons, allowing virtually no escape | uniformly high activity | non-toxic | > 50 | statistically significant reductions | ≤ 2 | 0.5 (≈ 1.01 µM) | effective |  |  |
| CCC[C@@H]1C[C@@H](C(=O)N[C@@H]([C@H]2O[C@H](SC)[C@H](O)[C@@H](O)[C@H]2O)[C@H](C)Cl)N(C)C1 [Clindamycin, clindamycin, reference compound] |  |  |  |  |  |  |  |  |  |  | 0.25 (≈ 0.588 µM) | > 128 |
